ChEMBL document CHEMBL4014297, “Discovery of small molecule inhibitors for the snake venom metalloprotease BaP1 using in silico and in vitro tests” (Bioorg Med Chem Lett, 2017)
Activity calls are given as the source filed them. No cut-off for these calls is given here.

Tests used:
[1] = target: T1, Snake venom metalloproteinase BaP1 (Bothrops asper) (UniProt P83512); test: Binding affinity to Bothrops asper venom metalloprotease BaP1 by fluorescence spectroscopic method
T1 sequence (whole entry): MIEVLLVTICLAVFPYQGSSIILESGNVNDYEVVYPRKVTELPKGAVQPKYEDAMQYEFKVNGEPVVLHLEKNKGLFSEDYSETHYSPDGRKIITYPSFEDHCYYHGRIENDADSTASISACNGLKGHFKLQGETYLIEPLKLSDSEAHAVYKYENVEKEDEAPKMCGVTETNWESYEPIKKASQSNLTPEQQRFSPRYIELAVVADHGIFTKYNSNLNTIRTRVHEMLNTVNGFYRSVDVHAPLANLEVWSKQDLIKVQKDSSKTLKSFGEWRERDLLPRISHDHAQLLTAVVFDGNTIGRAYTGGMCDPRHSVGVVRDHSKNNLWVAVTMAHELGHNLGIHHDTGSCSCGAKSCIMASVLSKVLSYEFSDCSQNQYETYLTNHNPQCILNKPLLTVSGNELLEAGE

[2] = target: T1, Snake venom metalloproteinase BaP1 (Bothrops asper); test: Binding affinity to Bothrops asper venom metalloprotease BaP1 assessed as red shift by fluorescence spectroscopic method
[3] = target: T2, Snake venom metalloproteinase BaP1 (Bothrops asper, UniProt P83512); test: Binding affinity to Bothrops asper venom metalloprotease BaP1 assessed as Stern-Volmer quenching constant by fluorescence spectroscopic method
T2 sequence (P83512 whole entry): T1 sequence (whole entry)

[4] = target: T2, Snake venom metalloproteinase BaP1; test: Inhibition of Bothrops asper venom metalloprotease BaP1 assessed as reduction in proteolytic activity using azocasein as substrate measured after 90 mins by colorimetric method
[5] = target: T1, Snake venom metalloproteinase BaP1 (Bothrops asper); test: Inhibition of Bothrops asper venom metalloprotease BaP1 assessed as reduction in proteolytic activity at 100 umol/dm3 using azocasein as substrate measured after 90 mins by colorimetric method relative to control

## Cc1ccc(OCC(=O)N/N=C2\C(=O)NC(=O)N=C2O)cc1
[1]
  Activity: Active
[2]
  Activity: 11 nm
[3]
  Kd: 37.1 µM
[4]
  IC50: 20 µM
[5]
  inhibition: 98%

## CC(C)c1ccc(OCC(=O)N/N=C2\C(=O)NC(=O)N=C2O)cc1
[1]
  Activity: Active
[2]
  Activity: 7 nm
[3]
  Kd: 33.6 µM
[4]
  IC50: 17 µM
[5]
  inhibition: 95%
